This assay addresses T1, recombinant human LTA4 hydrolase (rhLTA4H) (Homo sapiens, UniProt P09960).
T1 construct: made in house; host or cells: Spodoptera frugiperda (Sf-9) cells, baculovirus (pFastBac1)
T1 sequence (P09960 1-611): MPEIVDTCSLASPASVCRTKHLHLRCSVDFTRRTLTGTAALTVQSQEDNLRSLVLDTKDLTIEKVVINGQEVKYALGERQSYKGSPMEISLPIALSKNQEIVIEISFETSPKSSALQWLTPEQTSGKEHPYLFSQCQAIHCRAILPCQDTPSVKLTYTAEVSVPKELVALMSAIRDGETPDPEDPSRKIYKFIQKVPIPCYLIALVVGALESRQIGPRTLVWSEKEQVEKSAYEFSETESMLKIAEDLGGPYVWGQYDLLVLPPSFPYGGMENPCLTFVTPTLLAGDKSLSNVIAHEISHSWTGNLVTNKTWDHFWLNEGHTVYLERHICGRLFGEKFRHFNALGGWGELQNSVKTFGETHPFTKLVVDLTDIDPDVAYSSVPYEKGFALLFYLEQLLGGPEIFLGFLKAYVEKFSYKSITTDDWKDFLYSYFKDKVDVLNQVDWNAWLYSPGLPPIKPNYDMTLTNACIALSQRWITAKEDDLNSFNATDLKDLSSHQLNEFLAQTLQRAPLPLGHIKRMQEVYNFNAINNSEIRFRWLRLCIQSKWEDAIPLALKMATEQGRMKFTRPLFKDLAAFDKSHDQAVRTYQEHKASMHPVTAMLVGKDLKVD
Briefly: Recombinant Human LTA4 Hydrolase Assay for LTA4 Hydrolase Inhibitor Activity. The note with it: average of results obtained; LTB4 quantified by enzyme-linked immunoassay. Format: biochemical. As for the experimental part:
Biological Methods: Recombinant Human LTA4 Hydrolase Assay for LTA4 Hydrolase Inhibitor Activity
Compounds of the present invention were tested for LTA4 hydrolase inhibitor activity against recombinant human LTA4 hydrolase (rhLTA4H). Vectors were prepared and used to express rhLTA4H essentially as follows: LTA4 hydrolase encoding DNA was amplified by polymerase chain reaction (PCR) using a human placental cDNA library as a template. Oligonucleotide primers for the PCR reaction were based on the 5′-end, and the complement of the 3′-end, of the published nucleotide sequence for the coding region of the human LTA4 hydrolase gene (C. D. Funk et al., Proc. Natl. Acad. Sci. USA 1987, 84:6677-6681). The amplified 1.9 kb DNA fragment encoding LTA4 hydrolase was isolated and cloned into the pFastBac1 vector (Invitrogen). Recombinant baculovirus was generated as described by the manufacturer, and used to infect Spodoptera frugiperda (Sf-9) cells. Recombinant LTA4 hydrolase enzyme was purified from the infected Sf-9 cells essentially as described by J. K. Gierse et al. (Protein Expression and Purification 1993, 4:358-366). The purified enzyme solution was adjusted to contain 0.29 mg/mL LTA4 hydrolase, 50 mM Tris (pH 8.0), 150 mM NaCl, 5 mM dithiothreitol, 50% glycerol, and EDTA-free Complete protease inhibitor cocktail (Roche). The specific activity of the enzyme was about 3.8 μmol/min/mg.
LTA4 substrate was prepared from the methyl ester of LTA4 (Cayman Chemical) by treatment with 67 equiv of NaOH under nitrogen at rt for 40 min. The LTA4 substrate in its free acid form was kept frozen at −80° C. until needed. Each compound was diluted to different concentrations in assay buffer (0.1 M potassium phosphate (pH 7.4), 5 mg/mL fatty acid free BSA) containing 10% DMSO. A 25-uL aliquot of each compound dilution was incubated for 10 min at rt with an equal volume of assay buffer containing 36 ng of recombinant human LTA4H. The solution was then adjusted to 200 μL with assay buffer. LTA4 (free acid) was thawed and diluted in assay buffer to a concentration of 357 ng/mL, and 25 μL (9 ng) of LTA4 substrate was added to the reaction mixture (total volume=225 μL) at time zero. Each reaction was carried out at rt for 10 min. The reaction was stopped by diluting 10 μL of the reaction mixture with 200 μL of assay buffer. LTB4 was quantified in the diluted sample by a commercially available enzyme-linked immunoassay (Cayman Chemical Co.), as recommended by the manufacturer. Positive controls, under essentially identical conditions but without addition of an inhibitor compound, and negative controls, containing all assay components except enzyme, were routinely run in each experiment. […]
Results for the compounds tested in this assay are presented in Table 1 as an average of results obtained.

Consider `NC(=O)N[C@@H]1C[C@H]2CC[C@@H](C1)N2CCc1ccc(Oc2nc3ccc(F)cc3s2)cc1` [Example 179, meso-exo-(8-{2-[4-(6-Fluoro-benzothiazol-2-yloxy)-phenyl]-ethyl}-8-aza-bicyclo[3.2.1]oct-3-yl)-urea], for which the inhibition constant Ki was 47 nM.
The value for `CC(=O)N1C[C@@H]2C[C@H]1CN2CCOc1ccc(Oc2nc3cc(Cl)ccc3s2)cc1` [Example 264, (S,S)-1-(5-{2-[4-(5-Chloro-benzothiazole-2-yloxy)-phenoxy]-ethyl}-2,5-diaza-bicyclo[2.2.1]hept-2-yl)-ethanone] was 212 nM; that for `Cc1ccc2nc(Oc3ccc(CCN4CC5CN(C(N)=O)CC5C4)cc3)sc2c1` (centres unmarked) [Example 146] was 78 nM; that for `CC(C)(C)OC(=O)NCC(=O)N1C[C@@H]2C[C@H]1CN2Cc1ccc(Oc2nc3ccccc3s2)cc1` [Example 14, (S,S)-(2-{5-[4-(Benzothiazol-2-yloxy)-benzyl]-2,5-diaza-bicyclo[2.2.1]hept-2-yl}-2-oxo-ethyl)-carbamic acid tert-butyl ester] was 9 nM.
As to `CC(=O)N1[C@@H]2CC[C@H]1C[C@@H](NCCOc1ccc(Oc3nc4ccc(C)cc4s3)cc1)C2` [Example 172, meso-exo-1-(3-{2-[4-(6-Methyl-benzothiazol-2-yloxy)-phenoxy]-ethylamino}-8-aza-bicyclo[3.2.1]oct-8-yl)-ethanone], the inhibition constant (Ki) stood at 1050 nM.
For the molecule `NC(=O)N1C[C@H]2C[C@@H]1CN2CCc1ccc(Oc2nc3cc(F)ccc3s2)cc1` [Example 244, (R,R)-5-{2-[4-(5-Fluoro-benzothiazol-2-yloxy)-phenyl]-ethyl}-2,5-diaza-bicyclo[2.2.1]heptane-2-carboxylic acid amide], the inhibition constant Ki was determined as 12 nM.
The value for `NC(=O)N1CC2CN(CCc3ccc(Oc4nc5c(F)cccc5s4)cc3)CC2C1` (centres unmarked) [Example 147, 5-{2-[4-(4-Fluoro-benzothiazol-2-yloxy)-phenyl]-ethyl}-hexahydro-pyrrolo[3,4-c]pyrrole-2-carboxylic acid amide] was 5 nM; that for `Cc1ccc2nc(Oc3ccc(CCN4C5CCC4CN(S(C)(=O)=O)C5)cc3)sc2c1` [Example 214, meso-2-{4-[2-(3-Methanesulfonyl-3,8-diaza-bicyclo[3.2.1]oct-8-yl)-ethyl]-phenoxy}-6-methyl-benzothiazole] was 543 nM.
Regarding `COC(=O)CCCN1CC2CN(Cc3ccc(Oc4nc5ccccc5s4)cc3)CC2C1` (centres unmarked) [Example 156, 4-{5-[4-(Benzothiazol-2-yloxy)-benzyl]-hexahydro-pyrrolo[3,4-c]pyrrol-2-yl}-butyric acid methyl ester], the Ki was 47 nM.
“meso-endo-[4-(6-Chloro-benzothiazol-2-yloxy)-benzyl]-(8-methanesulfonyl-8-aza-bicyclo[3.2.1]oct-3-yl)-amine [Example 228]”: the Ki was found to be 1590 nM.
Consider `CC(=O)N1CC2CCC(C1)N2CCOc1ccc(Oc2nc3c(Cl)cccc3s2)cc1` [Example 247], for which the Ki is 167 nM.
The value for `CS(=O)(=O)N1C[C@H]2C[C@@H]1CN2CCc1ccc(Oc2nc3c(F)cccc3s2)cc1` [Example 241, (R,R)-4-Fluoro-2-{4-[2-(5-methanesulfonyl-2,5-diaza-bicyclo[2.2.1]hept-2-yl)-ethyl]-phenoxy}-benzothiazole] was 281 nM.
With `CC(=O)N[C@@H]1C[C@H]2CC[C@@H](C1)N2CCc1ccc(Oc2nc3cc(F)ccc3s2)cc1` [Example 266, meso-exo-N-(8-{2-[4-(5-Fluoro-benzothiazol-2-yloxy)-phenyl]-ethyl}-8-aza-bicyclo[3.2.1]oct-3-yl)-acetamide], the Ki amounted to 64 nM.
Take `CC(C)(C)OC(=O)NCC(=O)N1C[C@H]2C[C@@H]1CN2Cc1ccc(Oc2nc3ccccc3s2)cc1` [Example 28, (R,R)-(2-{5-[4-(Benzothiazol-2-yloxy)-benzyl]-2,5-diaza-bicyclo[2.2.1]hept-2-yl}-2-oxo-ethyl)-carbamic acid tert-butyl ester]: the inhibitory constant (Ki) was 88 nM.

These data come from patent US8344008B2 (Janssen Pharmaceutica NV, priority 2007, dated 2013).
